How the values were obtained:
[1] = tested on: collagen induced arthritis; test: Rat collagen induced arthritis (CIA) model
[2] = Pharmacokinetics of Compound BB, single and repeat oral dose in CB6F1 female mice; assay type: in vivo, mouse; details: CB6F1 female mice, 2, 7.5, 15 mg/kg PO
Experimental: Animals were weighed daily prior to dosing. […] On subsequent dosing days, the animals' condition was noted prior to dosing; the animals were observed within 4 hours of dosing, and at the end of the day.
Samples were collected at pre-dose 0.25, 0.5, 1, 2, 4, 6 and 24 h following the first dose on day 1 and pre-dose (trough), 0.25, 0.5, 1, 2, 4, 6 and 24 h following the final dose on day 3. Animals received a single oral dose daily for 3 consecutive days. Blood was collected by retro-orbital bleeding for all time points on day 1. All other blood sampling was collected by a cardiac puncture. Blood was collected into K2EDTA tubes and placed on wet ice. Within 15 min of collection, the sample was centrifuged at 10,000 rpm at 4° C. for 10 min in a bench top centrifuge and the plasma transferred to a new microcentrifuge tube.

Lewis Lung Carcinoma = Lewis Lung Carcinoma (LLC) tumor brei model; assay type: in vivo, mouse
Experimental: LLC Lewis Lung carcinoma model: LLC cells are derived from a spontaneous lung tumor from a C57BL/6 mouse and can be studied as a s.c. tumor when injected in the flank, or as an orthotopic tumor if injected i.v., following which it localizes to the lung.
Compound BB was tested in the Lewis Lung Carcinoma model, which is known in the art and briefly described hereinabove.
LLC tumor brei model was prepared and injected subcutaneously into a mouse in the hind flank region. The tumor brei was prepared as follows. LL2-Luc tumor cells were grown in culture in DMEM+10% FBS. Cells were implanted @ 1×10^6 cells/100 uL SC in the flank of C57 Albino mice (male) When tumors reached 1000 mm3, tumors were harvested. Only the white, living tissue was harvested. Any material containing visable blood or necrotic area was isolated away from the tumor tissue. Tumor tissue was placed in a Dounce tissue homoginized with 5 mLs of warm DMEM (no FBS). About 1-2 grams of tumor tissue was collected, homogenized, pooled into 50 mL falcon tube, and cells were counted. Cells were spinned @ 12,000 RPM, and FBS was pooled off. Cells were resuspended to equal 1×10^7 cells/mL with sterile PBS. 100 uL of cells/mouse SC at the hind flank region were implanted. This process was repeated one more time before conducting brei tumor efficacy study.
Flow cytometry was performed to obtain a more extensive cellular subset analysis. In particular, the study examined T cell vs. Myeloid cells, Myeloid cell subsets, Regulatory vs. effector T cells, and Tumor markers vs. WBC (e.g., PD-L1 expression on tumor).
Different populations of tumor-associated myeloid cells can be identified by flow cytometry, e.g., monocytic immature myeloid cells (iMC), Granulocytic iMCs/Neutrophils, Tumor Associated Macrophages (TAMs), and Granulocytic MDSCs. The different populations, and panels for detecting MDSCs, are described in Cancer Discovery 2011; 1:54-67. Tumors may vary in their myeloid cell composition.

[3] = Target organ toxicity (TOT) study in rats, 10 days oral; assay type: in vivo
Experimental: A target organ toxicity (TOT) study was performed in rats. […] This study assessed clinical observations/mortality, body weights, clinical pathology, toxicokinetics, and histopathology of select tissues. The tissues studied were: Adrenal gland, Bone marrow (femur), Brain, Small Intestine (including GALT), Heart, Large Intestine, Kidney, Stomach, Liver, Pancreas, Spleen, Testis, and Thymus. Doses were selected based on repeat-dose tolerability study, PK and plasma protein binding, and cellular IC50s for PI3K isoforms.

C[C@H](NC(=O)c1c(N)nn2cccnc12)c1cc2cccc(C#Cc3cnn(C)c3)c2c(=O)n1-c1ccccc1 [Compound BB]
ED50 ([1]; Rattus norvegicus): 2.13 mg/kg
Mean ankle diameter (FIG. 1) ([1]; rat CIA, day 9 to day 17): has therapeutic effects
Stability in serum (24-hour time course of unbound plasma concentration) [2]: good stability in serum
Number of infiltrating TAMs (flow cytometry, FIG. 38A) (Lewis Lung Carcinoma): the number of infiltrating TAMs was decreased
Tumor growth (FIGS. 25A and 25B) (Lewis Lung Carcinoma; single agent): demonstrated single agent activity
CD206 staining (M2 macrophages, FIG. 39) (Lewis Lung Carcinoma; vs control): CD206 staining was reduced
Histopathology, gross changes ([3]; 10 days): no significant gross changes were observed
Decrease in body weights compared to vehicle ([3]; high dose (50 mg/kg/day), 10 days): 5-8%
Histopathology, thymus ([3]; males at ≥7.5 mg/kg/day, females at 50 mg/kg/day): minimal/mild lymphoid depletion
Mortality and clinical signs ([3]; oral 10 days, any dose level): No mortality or clinical signs were observed
Tolerability ([3]; oral, 1, 7.5, 20, 50 mg/kg/day): well-tolerated for 10 days
Histopathology, spleen ([3]; primarily at doses ≥20 mg/kg/day): minimal/mild lymphoid depletion of the marginal zone and periarteriolar lymphoid sheaths (PALS)
Clinical pathology ([3]; primarily in 20 and 50 mg/kg/day groups): minimal changes in neutrophils, lymphocytes, and fibrinogen
